# Assay results as given in ChEMBL document CHEMBL5291721, “A preclinical secondary pharmacology resource illuminates target-adverse drug reaction associations of marketed drugs” (Nat Commun, 2023).
# Key:
# Adenosine receptor A1 = target: T1, Adenosine receptor A1 (Homo sapiens, UniProt P30542)
# T1 sequence (P30542 whole entry): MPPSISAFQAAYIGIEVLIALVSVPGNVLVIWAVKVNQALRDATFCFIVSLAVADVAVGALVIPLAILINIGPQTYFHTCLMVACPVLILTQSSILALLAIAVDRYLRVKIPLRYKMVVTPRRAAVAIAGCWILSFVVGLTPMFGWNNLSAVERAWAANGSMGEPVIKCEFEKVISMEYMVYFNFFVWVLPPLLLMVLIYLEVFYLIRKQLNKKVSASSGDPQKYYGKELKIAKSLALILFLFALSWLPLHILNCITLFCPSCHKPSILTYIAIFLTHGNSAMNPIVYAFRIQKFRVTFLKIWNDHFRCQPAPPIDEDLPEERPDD
# [1] = target: Beta-2 adrenergic receptor (Homo sapiens, UniProt P07550)
# [2] = target: T2, Type-1 angiotensin II receptor (Homo sapiens, UniProt P30556)
# T2 sequence (P30556 whole entry): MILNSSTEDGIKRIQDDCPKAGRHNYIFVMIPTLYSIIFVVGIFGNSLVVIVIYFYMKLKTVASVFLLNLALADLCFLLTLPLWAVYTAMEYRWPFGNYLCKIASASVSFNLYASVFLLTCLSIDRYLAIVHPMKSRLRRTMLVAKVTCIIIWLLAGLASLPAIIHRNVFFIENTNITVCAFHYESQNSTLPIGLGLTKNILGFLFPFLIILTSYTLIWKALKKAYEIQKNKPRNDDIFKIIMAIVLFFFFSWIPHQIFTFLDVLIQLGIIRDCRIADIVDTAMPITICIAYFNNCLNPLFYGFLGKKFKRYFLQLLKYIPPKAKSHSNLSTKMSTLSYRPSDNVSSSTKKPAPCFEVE
# [3] = target: Voltage-dependent L-type calcium channel subunit alpha-1C (Rattus norvegicus, UniProt P22002); format: functional
# [4] = target: 3',5'-cyclic-AMP phosphodiesterase 4D (Homo sapiens, UniProt Q08499); format: functional
# [5] = target: Sodium-dependent noradrenaline transporter (Homo sapiens, UniProt P23975)
# Mu-type opioid receptor [6] = target: T3, Mu-type opioid receptor (Homo sapiens, UniProt P35372)
# D(3) dopamine receptor = D(3) dopamine receptor (Homo sapiens, UniProt P35462)
# [7] = target: T4, 5-hydroxytryptamine receptor 2C (Homo sapiens, UniProt P28335)
# T4 sequence (P28335 whole entry): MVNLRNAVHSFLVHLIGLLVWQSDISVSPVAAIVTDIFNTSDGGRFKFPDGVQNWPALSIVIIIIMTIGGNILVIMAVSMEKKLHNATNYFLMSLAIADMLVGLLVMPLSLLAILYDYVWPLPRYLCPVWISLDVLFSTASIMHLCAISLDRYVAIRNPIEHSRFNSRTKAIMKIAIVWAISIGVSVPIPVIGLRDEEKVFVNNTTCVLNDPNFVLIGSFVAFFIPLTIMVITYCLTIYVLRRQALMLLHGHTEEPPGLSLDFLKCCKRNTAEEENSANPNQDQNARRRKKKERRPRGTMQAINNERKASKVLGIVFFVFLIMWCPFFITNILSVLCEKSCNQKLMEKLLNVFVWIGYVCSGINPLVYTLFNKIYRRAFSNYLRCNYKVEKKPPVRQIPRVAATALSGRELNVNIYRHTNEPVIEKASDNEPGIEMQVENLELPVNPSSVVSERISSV
# [8] = target: T5, 5-hydroxytryptamine receptor 3A (Homo sapiens, UniProt P46098); format: functional
# T5 sequence (P46098 whole entry): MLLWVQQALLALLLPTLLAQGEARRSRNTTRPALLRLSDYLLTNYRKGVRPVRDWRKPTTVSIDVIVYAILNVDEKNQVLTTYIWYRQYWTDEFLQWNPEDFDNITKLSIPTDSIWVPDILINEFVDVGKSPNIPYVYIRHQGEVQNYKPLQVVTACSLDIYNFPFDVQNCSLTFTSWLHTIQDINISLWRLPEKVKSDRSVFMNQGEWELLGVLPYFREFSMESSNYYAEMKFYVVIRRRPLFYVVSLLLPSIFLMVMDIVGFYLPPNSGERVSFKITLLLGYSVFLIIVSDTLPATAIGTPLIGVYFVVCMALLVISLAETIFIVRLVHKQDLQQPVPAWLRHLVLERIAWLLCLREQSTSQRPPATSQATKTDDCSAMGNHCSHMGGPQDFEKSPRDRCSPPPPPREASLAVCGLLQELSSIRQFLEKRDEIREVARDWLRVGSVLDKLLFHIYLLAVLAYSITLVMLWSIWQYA
# Mu-type opioid receptor [9] = target: T3, Mu-type opioid receptor; assay: biochemical; format: functional
# Histamine H3 receptor = Histamine H3 receptor (Homo sapiens, UniProt Q9Y5N1)
# [10] = target: T6, Muscarinic acetylcholine receptor M1 (Homo sapiens, UniProt P11229); format: functional
# T6 sequence (P11229 whole entry): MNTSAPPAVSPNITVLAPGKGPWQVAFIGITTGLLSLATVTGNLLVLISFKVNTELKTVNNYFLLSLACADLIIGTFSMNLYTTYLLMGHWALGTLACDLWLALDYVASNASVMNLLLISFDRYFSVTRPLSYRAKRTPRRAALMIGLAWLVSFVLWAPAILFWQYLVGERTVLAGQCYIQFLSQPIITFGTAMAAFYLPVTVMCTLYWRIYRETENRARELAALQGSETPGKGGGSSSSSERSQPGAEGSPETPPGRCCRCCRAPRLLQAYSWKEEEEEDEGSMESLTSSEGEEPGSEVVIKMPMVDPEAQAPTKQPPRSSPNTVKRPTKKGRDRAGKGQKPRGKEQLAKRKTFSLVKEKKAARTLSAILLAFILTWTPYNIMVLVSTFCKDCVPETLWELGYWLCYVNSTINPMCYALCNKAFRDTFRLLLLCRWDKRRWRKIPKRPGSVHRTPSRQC
# Also: assay procedure not described here.
# Sequence of Sodium-dependent noradrenaline transporter (P23975 whole entry): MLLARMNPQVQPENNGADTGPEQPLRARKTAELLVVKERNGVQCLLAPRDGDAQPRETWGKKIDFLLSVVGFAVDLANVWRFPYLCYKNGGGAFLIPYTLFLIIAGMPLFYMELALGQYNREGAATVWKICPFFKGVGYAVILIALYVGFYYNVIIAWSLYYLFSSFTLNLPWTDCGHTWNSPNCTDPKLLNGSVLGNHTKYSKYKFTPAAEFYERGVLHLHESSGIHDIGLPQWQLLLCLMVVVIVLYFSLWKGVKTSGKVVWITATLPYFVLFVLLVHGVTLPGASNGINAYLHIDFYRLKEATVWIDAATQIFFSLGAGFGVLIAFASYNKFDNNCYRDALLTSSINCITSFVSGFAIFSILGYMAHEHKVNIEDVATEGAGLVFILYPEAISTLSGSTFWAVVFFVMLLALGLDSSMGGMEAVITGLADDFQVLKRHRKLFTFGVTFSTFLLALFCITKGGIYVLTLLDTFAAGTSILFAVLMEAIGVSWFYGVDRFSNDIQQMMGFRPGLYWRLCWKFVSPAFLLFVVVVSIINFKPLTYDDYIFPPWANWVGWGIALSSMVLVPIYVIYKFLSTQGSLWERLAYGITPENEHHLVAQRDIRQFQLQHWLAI
# Sequence of Voltage-dependent L-type calcium channel subunit alpha-1C (P22002 whole entry): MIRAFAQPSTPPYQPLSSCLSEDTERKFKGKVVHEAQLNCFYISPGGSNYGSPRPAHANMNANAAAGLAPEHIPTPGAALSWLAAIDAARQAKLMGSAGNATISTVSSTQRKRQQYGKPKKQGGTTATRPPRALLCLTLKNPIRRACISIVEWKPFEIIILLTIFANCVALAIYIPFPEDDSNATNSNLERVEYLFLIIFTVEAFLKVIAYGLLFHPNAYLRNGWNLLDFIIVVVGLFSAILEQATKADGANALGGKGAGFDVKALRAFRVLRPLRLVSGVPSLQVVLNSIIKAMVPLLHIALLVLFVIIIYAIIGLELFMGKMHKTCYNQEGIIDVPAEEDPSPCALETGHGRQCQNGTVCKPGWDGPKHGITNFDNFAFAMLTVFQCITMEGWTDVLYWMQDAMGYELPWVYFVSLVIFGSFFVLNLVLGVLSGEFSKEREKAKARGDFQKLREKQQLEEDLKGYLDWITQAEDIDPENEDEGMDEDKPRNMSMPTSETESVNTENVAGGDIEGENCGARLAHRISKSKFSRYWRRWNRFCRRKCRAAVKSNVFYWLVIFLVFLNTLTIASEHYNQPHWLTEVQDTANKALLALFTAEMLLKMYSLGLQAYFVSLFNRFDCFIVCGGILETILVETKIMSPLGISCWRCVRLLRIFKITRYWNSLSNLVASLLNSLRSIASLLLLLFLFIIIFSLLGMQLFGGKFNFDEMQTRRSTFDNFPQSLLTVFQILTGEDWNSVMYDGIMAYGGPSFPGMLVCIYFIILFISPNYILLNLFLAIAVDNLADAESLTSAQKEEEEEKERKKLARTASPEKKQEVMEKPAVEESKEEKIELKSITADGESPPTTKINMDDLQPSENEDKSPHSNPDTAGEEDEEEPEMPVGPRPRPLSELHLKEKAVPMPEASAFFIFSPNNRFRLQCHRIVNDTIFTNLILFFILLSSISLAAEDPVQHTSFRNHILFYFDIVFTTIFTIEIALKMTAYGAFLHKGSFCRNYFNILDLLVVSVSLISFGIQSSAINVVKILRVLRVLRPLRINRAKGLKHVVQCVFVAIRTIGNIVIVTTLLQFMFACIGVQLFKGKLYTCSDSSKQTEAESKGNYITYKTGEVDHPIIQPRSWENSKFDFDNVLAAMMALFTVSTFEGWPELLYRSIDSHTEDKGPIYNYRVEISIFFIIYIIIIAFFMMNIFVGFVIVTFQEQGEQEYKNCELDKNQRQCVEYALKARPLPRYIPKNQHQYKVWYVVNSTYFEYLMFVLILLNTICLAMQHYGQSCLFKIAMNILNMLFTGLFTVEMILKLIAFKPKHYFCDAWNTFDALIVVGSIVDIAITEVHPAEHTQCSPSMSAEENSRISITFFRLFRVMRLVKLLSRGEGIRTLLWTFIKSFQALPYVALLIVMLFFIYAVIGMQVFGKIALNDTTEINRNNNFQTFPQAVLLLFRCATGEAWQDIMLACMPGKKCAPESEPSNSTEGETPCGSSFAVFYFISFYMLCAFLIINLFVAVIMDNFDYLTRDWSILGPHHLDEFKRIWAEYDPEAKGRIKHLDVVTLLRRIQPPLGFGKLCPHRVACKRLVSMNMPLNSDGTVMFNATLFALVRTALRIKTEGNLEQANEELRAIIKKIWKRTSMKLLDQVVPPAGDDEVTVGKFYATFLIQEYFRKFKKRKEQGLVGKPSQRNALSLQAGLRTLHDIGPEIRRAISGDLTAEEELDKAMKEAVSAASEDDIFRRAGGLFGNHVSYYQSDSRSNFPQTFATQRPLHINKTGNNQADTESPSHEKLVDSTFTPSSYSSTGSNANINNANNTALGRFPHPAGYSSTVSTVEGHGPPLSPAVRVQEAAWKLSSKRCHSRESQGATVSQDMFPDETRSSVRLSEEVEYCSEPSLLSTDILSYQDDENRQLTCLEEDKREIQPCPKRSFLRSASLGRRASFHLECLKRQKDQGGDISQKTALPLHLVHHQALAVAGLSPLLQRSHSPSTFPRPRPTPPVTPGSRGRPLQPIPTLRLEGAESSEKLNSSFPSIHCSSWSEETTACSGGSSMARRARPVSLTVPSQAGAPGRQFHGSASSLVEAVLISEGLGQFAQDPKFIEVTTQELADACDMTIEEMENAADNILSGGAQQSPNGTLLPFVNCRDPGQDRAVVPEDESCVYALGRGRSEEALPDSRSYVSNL
# T3 sequence (P35372 whole entry): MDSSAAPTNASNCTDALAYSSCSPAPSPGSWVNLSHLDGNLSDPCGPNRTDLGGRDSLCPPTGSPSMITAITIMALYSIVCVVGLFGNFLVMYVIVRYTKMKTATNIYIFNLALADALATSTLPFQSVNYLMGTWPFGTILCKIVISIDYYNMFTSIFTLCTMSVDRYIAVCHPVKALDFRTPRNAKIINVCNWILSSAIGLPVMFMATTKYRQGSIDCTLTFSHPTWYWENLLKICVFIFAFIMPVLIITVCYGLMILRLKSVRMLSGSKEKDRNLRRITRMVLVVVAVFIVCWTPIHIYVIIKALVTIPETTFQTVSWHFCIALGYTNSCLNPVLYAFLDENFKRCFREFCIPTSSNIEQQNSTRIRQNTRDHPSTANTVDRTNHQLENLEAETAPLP
# Sequence of 3',5'-cyclic-AMP phosphodiesterase 4D (Q08499 whole entry): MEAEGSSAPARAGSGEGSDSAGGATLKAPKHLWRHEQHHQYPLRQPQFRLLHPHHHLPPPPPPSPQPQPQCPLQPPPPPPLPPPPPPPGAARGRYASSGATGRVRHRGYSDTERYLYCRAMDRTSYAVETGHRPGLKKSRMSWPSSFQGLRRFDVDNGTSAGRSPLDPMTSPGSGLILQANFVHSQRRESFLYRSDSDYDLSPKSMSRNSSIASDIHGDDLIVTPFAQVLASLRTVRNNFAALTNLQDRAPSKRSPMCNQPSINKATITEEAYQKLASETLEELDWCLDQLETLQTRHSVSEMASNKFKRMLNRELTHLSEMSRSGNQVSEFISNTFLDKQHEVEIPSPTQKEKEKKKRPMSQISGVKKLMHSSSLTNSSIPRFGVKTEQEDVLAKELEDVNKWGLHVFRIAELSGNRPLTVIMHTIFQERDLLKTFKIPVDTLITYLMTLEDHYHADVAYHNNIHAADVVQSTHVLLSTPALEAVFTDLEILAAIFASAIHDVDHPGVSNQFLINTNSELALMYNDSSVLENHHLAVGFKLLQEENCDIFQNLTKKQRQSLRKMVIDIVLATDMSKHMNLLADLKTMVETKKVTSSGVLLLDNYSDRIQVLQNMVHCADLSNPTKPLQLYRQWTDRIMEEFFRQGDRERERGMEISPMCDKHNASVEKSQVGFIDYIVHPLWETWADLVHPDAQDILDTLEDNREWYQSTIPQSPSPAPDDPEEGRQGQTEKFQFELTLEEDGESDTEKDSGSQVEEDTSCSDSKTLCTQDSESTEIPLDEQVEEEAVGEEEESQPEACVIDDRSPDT
# Sequence of Beta-2 adrenergic receptor (P07550 whole entry): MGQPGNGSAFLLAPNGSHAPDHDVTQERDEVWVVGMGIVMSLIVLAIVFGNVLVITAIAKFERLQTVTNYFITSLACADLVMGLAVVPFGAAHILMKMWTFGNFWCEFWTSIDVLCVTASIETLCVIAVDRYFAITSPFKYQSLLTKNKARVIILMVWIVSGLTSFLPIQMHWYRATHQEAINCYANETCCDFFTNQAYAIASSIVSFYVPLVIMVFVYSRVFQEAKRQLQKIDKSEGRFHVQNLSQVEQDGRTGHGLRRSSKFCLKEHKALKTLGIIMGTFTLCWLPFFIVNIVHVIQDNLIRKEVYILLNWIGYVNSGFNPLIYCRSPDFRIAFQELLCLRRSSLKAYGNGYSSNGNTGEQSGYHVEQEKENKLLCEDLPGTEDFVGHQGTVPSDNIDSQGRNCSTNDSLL
# Sequence of D(3) dopamine receptor (P35462 whole entry): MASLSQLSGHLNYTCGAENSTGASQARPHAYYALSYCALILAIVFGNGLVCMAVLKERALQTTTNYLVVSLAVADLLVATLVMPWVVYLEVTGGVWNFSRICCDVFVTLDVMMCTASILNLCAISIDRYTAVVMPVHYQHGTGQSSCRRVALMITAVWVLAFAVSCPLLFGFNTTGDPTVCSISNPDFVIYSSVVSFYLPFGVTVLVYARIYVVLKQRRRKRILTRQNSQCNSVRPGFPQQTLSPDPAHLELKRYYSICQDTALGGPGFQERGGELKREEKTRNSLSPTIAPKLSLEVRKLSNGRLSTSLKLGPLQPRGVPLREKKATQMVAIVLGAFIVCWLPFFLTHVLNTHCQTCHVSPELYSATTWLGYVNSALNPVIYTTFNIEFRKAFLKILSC
SMILES,AC50 (Adenosine receptor A1) [µM],AC50 [1] [µM],AC50 [2] [µM],AC50 [3] [µM],AC50 [4] [µM],AC50 [5] [µM],AC50 (Mu-type opioid receptor [6]) [µM],AC50 (D(3) dopamine receptor) [µM],AC50 [7] [µM],AC50 [8] [µM],AC50 (Mu-type opioid receptor [9]) [µM],AC50 (Histamine H3 receptor) [µM],AC50 [10] [µM]
CNS(=O)(=O)Cc1ccc2[nH]cc(CCN(C)C)c2c1,> 30,> 10,> 30,> 10,> 30,> 10,> 10,> 30,,,,,
CCOC(=O)OC(C)OC1=C(C(=O)Nc2ccccn2)N(C)S(=O)(=O)c2ccccc21 (configuration not stated) [AMPIROXICAM],> 30,> 30,> 30,> 30,> 30,> 30,,> 30,> 30,> 30,> 30,> 30,
CO/N=C(\C(=O)N[C@@H]1C(=O)N2C(C(=O)O)=C(CSc3nnnn3C)CS[C@H]12)c1csc(N)n1 [CEFMENOXIME],> 30,,> 30,,> 30,> 30,,,,,> 30,> 30,> 30
CCN1CCN(C(=O)N[C@@H](C(=O)N[C@@H]2C(=O)N3C(C(=O)O)=C(CSc4nnnn4C)CS[C@H]23)c2ccc(O)cc2)C(=O)C1=O [CEFOPERAZONE],> 30,,> 30,,> 30,> 30,,> 30,> 30,> 30,> 30,> 30,> 30
Cn1c(=O)c2c(ncn2CC2OCCO2)n(C)c1=O [DOXOFYLLINE],> 30,> 30,> 30,> 30,> 30,> 30,,> 30,> 30,> 30,> 30,> 30,
Nc1nc(N)nc(-c2cc(Cl)ccc2Cl)n1 [IRSOGLADINE],> 30,> 30,> 30,,21.4,> 30,,,,,> 30,> 30,
CNC(C)CCC=C(C)C (configuration not stated) [ISOMETHEPTENE],> 30,> 30,> 30,,,> 30,,,,,,> 30,
CC(C)OC(=O)CCC/C=C\C[C@@H]1[C@@H](CC[C@@H](O)CCc2ccccc2)[C@H](O)C[C@@H]1O [LATANOPROST],> 30,,> 30,,> 30,> 30,,> 30,> 30,> 30,> 30,> 30,> 30
CCC1(CC)C(=O)NCC(C)C1=O (configuration not stated) [METHYPRYLON],> 30,,> 30,,> 30,> 30,,> 30,> 30,> 30,> 30,> 30,> 30
CCCc1nc(C(C)(C)O)c(C(=O)OCc2oc(=O)oc2C)n1Cc1ccc(-c2ccccc2-c2nnn[nH]2)cc1 [OLMESARTAN MEDOXOMIL],> 50,> 10,0.0009,> 10,3.9,> 30,> 10,> 10,> 10,> 10,,,> 10
COc1ccc2c3c1O[C@H]1C(=O)CC[C@@]4(O)[C@@H](C2)N(C)CC[C@]314 [OXYCODONE],> 30,> 30,> 30,> 30,> 30,> 30,,> 30,> 30,> 30,,> 30,> 30
O=C(O)/C=C/c1ccc(Cn2ccnc2)cc1 [OZAGREL],> 30,,> 30,> 30,> 30,,,> 30,> 30,> 30,> 30,> 30,> 30
Clc1ccc(CCCOCCCN2CCCCC2)cc1 [PITOLISANT],> 30,,> 30,,> 30,13,,> 30,> 30,> 30,> 30,,> 30
CCN(CC)C(=O)N[C@H]1C[C@@H]2c3cccc4[nH]cc(c34)C[C@H]2N(C)C1 [TERGURIDE],> 30,,> 30,,> 30,> 30,,0.006,0.21,> 30,> 30,> 30,> 30
C/C(O)=C(\C#N)C(=O)Nc1ccc(C(F)(F)F)cc1 [TERIFLUNOMIDE],> 30,,> 30,,> 30,> 30,> 30,> 30,> 30,> 30,,> 30,> 30
CN1CCN(CC/C=C2/c3ccccc3Sc3ccc(S(=O)(=O)N(C)C)cc32)CC1 [THIOTHIXENE],> 30,> 10,> 30,> 10,4.1,> 10,> 10,0.0139,2.8,1.6,,,> 10
CC(=O)O[C@H]1C[C@@H]2CC[C@@H]3[C@H](CC[C@@]4(C)[C@H]3C[C@H]([N+]3(C)CCCCC3)[C@@H]4OC(C)=O)[C@@]2(C)C[C@@H]1N1CCCCC1 [VECURONIUM],> 30,> 30,> 30,> 30,> 30,> 30,,> 30,> 30,> 30,> 30,18,
O=C(NCCNCC(O)COc1ccc(O)cc1)N1CCOCC1 (configuration not stated) [XAMOTEROL],> 30,,> 30,,> 30,> 30,,> 30,> 30,> 30,> 30,> 30,> 30
